Two compounds from PMC10529594, “Strasseriolides display in vitro and in vivo activity against trypanosomal parasites and cause morphological and size defects in Trypanosoma cruzi” (PLOS Neglected Tropical Diseases, 2023) can be followed below.

Structures are written as SMILES. Where two headings read alike, the source gives them in different places. Some results are limits rather than exact numbers.

The test system of assay [1] is T. cruzi Tulahuen C4 intracellular amastigotes. The assay can be described thus: β-D-galactosidase transgenic T. cruzi assay (intracellular amastigotes in L6 cells, CPRG). Format: cell-based. The following applies: Trypanosoma cruzi; for inhibition at 0.00152588 µM / inhibition at 0.00305176 µM / inhibition at 0.00610352 µM / inhibition at 0.012207 µM / inhibition at 0.0244141 µM / inhibition at 0.0488281 µM / inhibition at 0.0976562 µM / inhibition at 0.195312 µM / inhibition at 0.390625 µM / inhibition at 0.78125 µM / inhibition at 1.5625 µM / inhibition at 3.125 µM / inhibition at 6.25 µM / inhibition at 12.5 µM / inhibition at 25 µM / inhibition at 50 µM: TULAHUEN, L6, T. cruzi amastigotes, 96-hour treatment, read-out: Growth inhibition (%) Average; for EC50: Tulahuen C4 in L6 cells, 96 h, CPRG. The protocol: The Trypanosoma cruzi Tulahuen strain used is a genetically modified strain that expresses the Escherichia coli β-galactosidase gene, lacZ [31]. It was kindly supplied by Marcel Kaiser (Swiss Tropical and Public Health Institute). The T. cruzi Tulahuen C4 strain was cultured in RPMI-1640 supplemented with 10% inactivated FBS (iFBS), 1.7 mM L-glutamine, 100 U/mL penicillin, and […] at 37°C and 5% CO2. L6 rat skeletal muscle cells were purchased from ATCC (reference CRL-1458) and used as host cells for infection with transgenic T. cruzi trypomastigotes. Epimastigotes were obtained by differentiation in LIT medium with 10% iFBS at 28°C from trypomastigote forms.
A Thermo Scientific Multidrop Combi dispenser was used to dispense 55 μL of T. cruzi infected L6 cells (2 ×10^3 cells per well) into 384-well Corning assay plates already containing 5 μL of each compound at concentrations ranging from 0.0015 to 50 μM and controls. The plates were incubated at 37°C for 96 hours upon which 15 μL of lysis buffer (0.5 mM CPRG, 0.5% NP40) were added to each well and further incubated for 4 hours in the dark. Absorbance at 585 nm was measured in a Perkin Elmer Envision plate reader.

A further assay concerns L6 rat myoblast cells. The assay can be described thus: Cytotoxicity evaluation in L6 cells (resazurin). The settings on record: for EC50: Rattus norvegicus, Myoblast, 72 h, read-out: EC50 L6. Format: cell-based. The protocol:
One hundred microliters of supplemented RPMI 1640 medium containing the compounds and controls were added to L6 rat myoblast cells previously seeded (4,000 cells per well) in a 96-well microplate. After 72 hours at 37°C the viable cell number was determined by resazurin reduction. 20 μL of resazurin at 0.11 mg/mL in PBS 1X were added to each well and incubated in the dark for 2 hours at 37°C. Cell viability was estimated by measuring the final fluorescence at 570–590 nm in a Tecan Infinite F200 plate reader.

As usually defined, the inhibition is the relative decrease from the control value, in per cent. Broadly, the EC50 is the concentration at which the effect is half-maximal. On to `C/C1=C\[C@H](C)CCC(=O)/C(C)=C/[C@H](C)C[C@@H](C)CC[C@@H]([C@@H](C)C(=O)O)OC(=O)[C@@H](C)C1` [Strasseriolide A, strasseriolide A], for which, in assay [1], the inhibition at 0.00152588 µM is 11.7%, the inhibition at 0.00305176 µM is 9.68%, the inhibition at 0.00610352 µM worked out at 6.95% and the inhibition at 0.012207 µM worked out at 5.87%. Moreover, in assay [1], the inhibition at 0.0244141 µM was 3.26%, the inhibition at 0.0488281 µM was found to be 6.89%, the inhibition at 0.0976562 µM turned out to be 2.91% and the inhibition at 0.195312 µM came to 12.5%. Further, in assay [1], the inhibition at 0.390625 µM turned out to be 4.42%, the inhibition at 0.78125 µM was determined as 3.14%, the inhibition at 1.5625 µM was found to be 3.55% and the inhibition at 3.125 µM was 3.27%. Further, in assay [1], the inhibition at 6.25 µM is 4.63%, the inhibition at 12.5 µM came out at 11.4%, the inhibition at 25 µM is 39.4% and the inhibition at 50 µM came out at 86.7%. Besides, the EC50 in assay [1] came out at 31000 nM. In the assay with L6 rat myoblast cells, the “Selectivity index T. cruzi Tulahuen C4 versus L6 cells” value is listed as above 1. Further, the EC50 with L6 rat myoblast cells (resazurin) is above 50000 nM.

With `C/C1=C\[C@H](C)CC[C@@H](O)/C(C)=C/[C@H](C)C[C@@H](C)CC[C@@H]([C@@H](C)C(=O)O)OC(=O)[C@@H](C)C1` [Strasseriolide B, strasseriolide B], in assay [1], the inhibition at 0.00152588 µM was found to be 4.52%, the inhibition at 0.00305176 µM was 4.82%, the inhibition at 0.00610352 µM came out at 6.25% and the inhibition at 0.012207 µM worked out at 11.4%. Besides, in assay [1], the inhibition at 0.0244141 µM was 8.7%, the inhibition at 0.0488281 µM turned out to be 6.79%, the inhibition at 0.0976562 µM came to 10.8% and the inhibition at 0.195312 µM is 52.7%. In addition, in assay [1], the inhibition at 0.390625 µM was determined as 98.7%, the inhibition at 0.78125 µM was found to be 112%, the inhibition at 1.5625 µM worked out at 113% and the inhibition at 3.125 µM turned out to be 113%. Also, in assay [1], the inhibition at 6.25 µM worked out at 113%, the inhibition at 12.5 µM is 113%, the inhibition at 25 µM is 115% and the inhibition at 50 µM was 117%. In addition, the half-maximal effective concentration (EC50) in assay [1] was determined as 210 nM. Moreover, in the assay with L6 rat myoblast cells, the “Selectivity index T. cruzi Tulahuen C4 versus L6 cells” value was 1 and the EC50 turned out to be 300 nM.
